Some test systems named below: NCI-H226 lung; SK-MEL-28 melanoma; MOLT-4 leukemia; CCRF-CEM leukemia; SF-268 CNS; PC-3 prostate; UACC-62 melanoma; SF-295 CNS; ACHN renal; MDA-MB-231 breast.
What all share (test): NCI anticancer screen, dose series, 48 h

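Growth conditions: 96-well plates. Treatment: test compound, 48 hours, 5 concentrations. Analysis: linear interpolation between bracketing concentrations; unreached endpoints set to highest concentration. GI50 marks 50% less growth. Definition used: TGI = concentration required for complete inhibition of growth.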

With `Cc1cc(-c2nc3ccc(O)cc3s2)ccc1N`, the GI50 was 60.2 µM in the assay with NCI-H226 lung; 64.9 µM with SK-MEL-28 melanoma; 27.1 µM with MOLT-4 leukemia; 0.797 µM with CCRF-CEM leukemia; 35.6 µM in the assay with SF-268 CNS; 50.2 µM in the assay with PC-3 prostate. Besides, the GI50 in the assay on UACC-62 melanoma is 57.7 µM; in the assay with SF-295 CNS, 31.5 µM; in the assay on ACHN renal, 53.9 µM; with MDA-MB-231 breast, 44.7 µM. In addition, the TGI with NCI-H226 lung, in the assay with SK-MEL-28 melanoma, in the assay on MOLT-4 leukemia, in the assay on CCRF-CEM leukemia, with SF-268 CNS and with PC-3 prostate was more than 100 µM in each case. Further, the TGI with UACC-62 melanoma, in the assay with SF-295 CNS, in the assay with ACHN renal and in the assay on MDA-MB-231 breast was more than 100 µM in each case.

In the case of `CCc1ccc(CCC(=O)Nc2ncc(Cc3ccccc3)s2)o1`, the GI50 is 53.2 µM with NCI-H226 lung; 9.11 µM in the assay on SK-MEL-28 melanoma; 2.43 µM in the assay with MOLT-4 leukemia; 2.02 µM with CCRF-CEM leukemia; 8.64 µM with SF-268 CNS; 2.74 µM in the assay on PC-3 prostate. Also, the GI50 was 1.21 µM in the assay with UACC-62 melanoma, 3.29 µM in the assay on SF-295 CNS, 5.68 µM with ACHN renal and 2.52 µM in the assay with MDA-MB-231 breast. In addition, the TGI with NCI-H226 lung, in the assay on SK-MEL-28 melanoma, in the assay on MOLT-4 leukemia, with CCRF-CEM leukemia, in the assay with SF-268 CNS and in the assay with PC-3 prostate was more than 100 µM in each case. Moreover, the TGI in the assay with UACC-62 melanoma is more than 100 µM; in the assay with SF-295 CNS, more than 100 µM; in the assay on ACHN renal it was more than 100 µM; with MDA-MB-231 breast it was 22.2 µM.

With `CN1CCN(Cc2ccc(NC(=O)c3[nH]ncc3Nc3ncnc4c3CCC4)cc2)CC1`, the GI50 was 0.755 µM in the assay with NCI-H226 lung; 2.61 µM in the assay with SK-MEL-28 melanoma; 0.447 µM in the assay on MOLT-4 leukemia; 0.611 µM in the assay with CCRF-CEM leukemia; 2.14 µM in the assay with SF-268 CNS; 1.96 µM in the assay with PC-3 prostate. The GI50 with UACC-62 melanoma was 3.24 µM; in the assay with SF-295 CNS it was 2.24 µM; in the assay with ACHN renal, 1.32 µM; in the assay with MDA-MB-231 breast, 2.98 µM. Besides, the TGI was 13 µM in the assay with NCI-H226 lung; 13.1 µM with SK-MEL-28 melanoma; 3 µM with MOLT-4 leukemia; 11 µM in the assay with CCRF-CEM leukemia; 7.78 µM with SF-268 CNS; 12.1 µM in the assay on PC-3 prostate. Besides, the TGI is 13.5 µM in the assay on UACC-62 melanoma, 12 µM in the assay with SF-295 CNS, 9.09 µM with ACHN renal and 7.8 µM in the assay with MDA-MB-231 breast.

Regarding `Cn1c2ccc([N+](=O)[O-])cc2c(=O)c2c(O)cc(O)cc21`, the TGI in the assay on NCI-H226 lung was more than 100 µM; in the assay on SK-MEL-28 melanoma it was more than 100 µM; with MOLT-4 leukemia it was more than 100 µM; with CCRF-CEM leukemia, more than 100 µM; in the assay with SF-268 CNS, 80.2 µM; with PC-3 prostate, more than 100 µM. Also, the TGI in the assay with UACC-62 melanoma is more than 100 µM; with SF-295 CNS it was 33.8 µM; with ACHN renal, more than 100 µM; in the assay on MDA-MB-231 breast it was more than 100 µM.

`Nc1ncc(-c2ccc(C(F)(F)F)cc2)c(NC2CCCCCC2)n1`: the GI50 in the assay with NCI-H226 lung is 12.9 µM; in the assay with SK-MEL-28 melanoma, 53.6 µM; with MOLT-4 leukemia it was 23.3 µM; in the assay with CCRF-CEM leukemia it was 15.4 µM; in the assay with SF-268 CNS it was 48.4 µM; in the assay on PC-3 prostate, 25.4 µM. The GI50 was 20.4 µM with UACC-62 melanoma, 24.1 µM in the assay with SF-295 CNS, 33.8 µM with ACHN renal and 21.3 µM in the assay with MDA-MB-231 breast. In addition, the TGI in the assay with NCI-H226 lung was more than 100 µM; in the assay with SK-MEL-28 melanoma, more than 100 µM; in the assay with MOLT-4 leukemia, 81.5 µM; in the assay with CCRF-CEM leukemia, 52.8 µM; in the assay with SF-268 CNS it was more than 100 µM; with PC-3 prostate it was more than 100 µM. Further, the TGI with UACC-62 melanoma was more than 100 µM; with SF-295 CNS it was more than 100 µM; in the assay on ACHN renal it was more than 100 µM; in the assay on MDA-MB-231 breast it was 76.9 µM.

`COC[C@H]1OC(=O)c2coc3c2[C@@]1(C)C1=C(C3=O)[C@@H]2CCC(=O)[C@@]2(C)C[C@H]1OC(C)=O`: the figures for the GI50 in the assay on NCI-H226 lung and in the assay on MDA-MB-231 breast were 11 µM and 14.4 µM, respectively. The TGI with NCI-H226 lung is more than 100 µM; in the assay with SK-MEL-28 melanoma, more than 100 µM; with MOLT-4 leukemia, 42.3 µM; in the assay on CCRF-CEM leukemia, more than 53.5 µM; in the assay on SF-268 CNS, more than 100 µM; in the assay with PC-3 prostate it was more than 100 µM. In addition, the TGI is 17.5 µM in the assay on UACC-62 melanoma, 63.1 µM in the assay with SF-295 CNS, more than 100 µM in the assay with ACHN renal and more than 100 µM with MDA-MB-231 breast.

With `Cc1ccc(NS(=O)(=O)c2cc(C)ccc2C)cc1`, the GI50 in the assay on NCI-H226 lung is 15.3 µM; in the assay with SK-MEL-28 melanoma, 10.7 µM; with MOLT-4 leukemia it was 5.43 µM; with CCRF-CEM leukemia it was 6.19 µM; in the assay with SF-268 CNS, 7 µM; in the assay on PC-3 prostate, 11.4 µM. Moreover, the GI50 in the assay with UACC-62 melanoma was 3.08 µM; with SF-295 CNS, 2.62 µM; in the assay on ACHN renal, 12.7 µM; in the assay with MDA-MB-231 breast it was 4.44 µM. Moreover, the TGI in the assay on NCI-H226 lung is 70.4 µM; in the assay with SK-MEL-28 melanoma, 37.3 µM; in the assay with MOLT-4 leukemia it was more than 100 µM; in the assay on CCRF-CEM leukemia it was more than 100 µM; in the assay on SF-268 CNS, 35.2 µM; with PC-3 prostate it was 66.5 µM. In addition, the TGI in the assay on UACC-62 melanoma turned out to be 19.9 µM; with SF-295 CNS, 19.8 µM; in the assay on ACHN renal it was 90 µM; in the assay with MDA-MB-231 breast it was 25.7 µM.

For the origin of these results see PubChem BioAssay (NCI).
